Reference: PubChem BioAssay (NCI)
Where “and” joins values, the source holds several entries; their conditions need not be identical. Identical values can stand only once.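 Values below derive from 48-hour exposures of cells grown in 96-well plates, with endpoints linearly interpolated between the two concentrations bracketing the appropriate inhibition level. GI50 is the concentration that inhibits growth by half. TGI: total growth inhibition.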

Columns and labels:
Assay in all cases: NCI anticancer screen, dose series, 48 h
SR leukemia = tested on: SR leukemia
SK-MEL-2 melanoma = tested on: SK-MEL-2 melanoma
HOP-92 NSCLC = tested on: HOP-92 NSCLC
SK-MEL-5 melanoma = tested on: SK-MEL-5 melanoma
COLO 205 colon = tested on: COLO 205 colon
BT-549 breast = tested on: BT-549 breast
KM12 colon = tested on: KM12 colon
SNB-75 CNS = tested on: SNB-75 CNS
A549 NSCLC = tested on: A549 NSCLC
RXF 393 renal = tested on: RXF 393 renal

SMILES	TGI (SR leukemia) [µM]	TGI (SK-MEL-2 melanoma)	TGI (HOP-92 NSCLC)	TGI (SK-MEL-5 melanoma)	TGI (COLO 205 colon)	TGI (BT-549 breast) [µM]	TGI (KM12 colon)	TGI (SNB-75 CNS)	TGI (A549 NSCLC)	TGI (RXF 393 renal)	GI50 (SK-MEL-2 melanoma) [µM]	GI50 (HOP-92 NSCLC)	GI50 (SK-MEL-5 melanoma) [µM]	GI50 (COLO 205 colon)	GI50 (SNB-75 CNS) [µM]	GI50 (A549 NSCLC)	GI50 (RXF 393 renal) [µM]
C[C@H](CCc1nc(C#N)c(N)o1)[C@H]1CC[C@H]2[C@@H]3CCC4C[C@@H](O)CC[C@]4(C)[C@H]3C[C@@H](O)[C@]12C (stereo partly specified)	29	32.2 µM	28 µM	29.5 µM	31.2 µM	14.7	28.2 µM	25 µM	23 µM	24.7 µM							
COc1ccc(N=C(C)C(C)=Nc2ccc(OC)cc2)cc1	> 100	> 100 µM	> 100 µM	> 100 µM	37.1 µM	> 100	> 100 µM	> 100 µM	> 100 µM	> 100 µM							
CC(Cl)(CCC(Cl)C(C)(C)Cl)C(=O)CBr (stereo unspecified)	6.54	30.3 µM	20.8 µM	21 µM	18.4 µM	27.3	29.6 µM	26.5 µM	43 µM	11.2 µM							
COC(=O)[C@@H]1C=CCN1S(=O)(=O)c1ccc(C)cc1	58.8	> 100 µM	> 100 µM	> 100 µM	> 100 µM	> 100	> 100 µM	> 100 µM	> 100 µM	> 100 µM							
COC(=O)CCCc1nc2ccccc2nc1N=Nc1ccccc1	72.7	> 100 µM	> 100 µM	> 100 µM	31.2 µM	> 100	> 100 µM	> 100 µM	> 100 µM	> 100 µM							
Cc1cc(NS(=O)(=O)c2ccc(Nc3c4ccccc4nc4c(C(=O)NC(CO)(CO)CO)cccc34)cc2)no1	91.4	48.5 µM	> 100 µM	> 100 µM	> 100 µM	98.9	71.4 µM	55.1 µM	> 100 µM								
O=C(NNC(=O)c1ccc(Cl)cc1NC(=O)C12CC3CC(CC(C3)C1)C2)c1ccc(Cl)cc1	63.8		51.9 µM	36.5 µM	27.6 µM	> 100	54.4 µM		42.8 µM	40.3 µM							
Cc1oc(N)c(S(=O)(=O)/C(C#N)=C/c2ccccc2[N+](=O)[O-])c1C	40.2	> 100 µM	> 100 µM	38.1 µM	40.3 µM	48.2	73.2 µM	> 100 µM	59.7 µM	52.8 µM							
Cc1cc2ccccc2n2c1nc1ccc(O)cc12	> 10	> 10 µM		> 10 µM	> 10 µM	> 10	> 10 µM	> 10 µM	> 10 µM	> 10 µM							
C[C@@H]1C[C@@H]2OC(=O)[C@]3(C)[C@H]2[C@@H](OC3(C)O)[C@]2(C)C(=O)C=C[C@@H]12 (stereo partly specified)	28.5	54.7 µM	38.9 µM	51.2 µM	32 µM	23.1	58.7 µM	> 100 µM	> 100 µM	46 µM							
O=S1(=O)N=C(SCc2c[nH]c3ccccc23)N(c2ccccc2)c2ccncc21	> 100	> 100 µM	> 100 µM	> 100 µM	> 100 µM	> 100	> 100 µM	87.7 µM	> 100 µM								
CC(C)(C)N=C1C(=O)C2(C)CCC1C2(C)C (stereo unspecified)	> 100	> 100 µM		> 100 µM	> 100 µM	> 100	> 100 µM		> 100 µM	> 100 µM							
C(=Nc1ccc(-c2nc3ccccc3s2)cc1)c1cccs1	> 100	> 100 µM	90.7 µM	> 100 µM	> 100 µM	> 100	> 100 µM	> 100 µM	> 100 µM	85.3 µM							
O=C(Oc1cncc(Cl)c1)c1cc2ccccc2sc1=O	76.8	90.7 µM	> 100 µM	> 100 µM	> 100 µM	> 100	> 100 µM	> 100 µM	> 100 µM	91.1 µM							
COc1ccc(/C=C/C(=O)c2cc(CN(C)C)c(O)c(CN(C)C)c2)cc1	> 100			32.4 µM	32.5 µM	72.9	37.4 µM	> 100 µM	> 100 µM	> 100 µM							
COC1(C)CCC(OS(C)(=O)=O)CO1 (stereo unspecified)	> 100	> 100 µM	> 100 µM	> 100 µM	> 100 µM	> 100	> 100 µM	> 100 µM	> 100 µM	> 100 µM							
COc1c(NC(C)=O)c2ccccc2c2ccccc12	> 100	> 100 µM	> 100 µM	> 100 µM		> 100	> 100 µM		> 100 µM	> 100 µM							
CCN(CC)CC[n+]1ccc2c(C)c3[nH]c4ccccc4c3c(C)c2c1	3.01	1.56 µM and 3.43 µM and 1.29 µM	1.94 µM and 4.34 µM and 2.71 µM	1.57 µM and 1.28 µM and 2.45 µM	0.525 µM and 0.878 µM and 1.55 µM	4.95	2.39 µM and 1.45 µM and 2.76 µM	1.14 µM and 0.847 µM and 1.23 µM	5.22 µM and 5.45 µM and 8.14 µM	8.83 µM and 8.41 µM and 7.26 µM	1.4	0.342 µM and 0.833 µM and 0.242 µM	0.239	0.131 µM and 0.297 µM and 0.412 µM	0.148	0.466 µM and 0.498 µM and 0.951 µM	1.83
